Results published in patent EP0589069A1, “Hydroquinone derivatives and antioxidants and tumor inhibitors containing them” (NIPPON HYPOX LABORATORIES INCORPORATED, priority 1992, dated 1994).

Tests used:
[1] = system: lipid of rat liver microsome; test: Inhibition activity against hyperoxidation of lipid of rat liver microsome (thiobarbituric acid method); type: biochemical; conditions: for antioxidant activity (result in words on Table 2): summary of Table 2; for Inhibition ratio of lipid peroxidation (%): rat liver microsome, NADPH/ADP/FeCl₃, 37°C
Protocol: [Inhibition activity against hyperoxidation of lipid of rat liver microsome]
A plurality of male SD rats (weighing […]) were prepared. Each rat was anesthetized with pentobarbital, and then subjected to celiotomy. A cannula was introduced into the portal vein of each rat, the abdominal large veins were sectioned, and 500 ml of cold 0.9 % NaCl was injected into the portal veins.
Livers were extracted from individual rats, and the livers were cut to pieces in 1.15 % KCl and homogenized with ice cooling. Then, 1.15 % KCl was further added to obtain a 30 % liver homogenized solution.
The above homogenized solution was centrifugally separated at 8,000 g (g: gravitation acceleration) for 10 minutes, and the resultant supernatant was recovered.
The so-prepared suspension was stored at -20°C before a test described in the following (2), and it was used within 1 week after the preparation.
As test compounds, the hydroquinone derivatives obtained in Preparation Examples 1 to 12, a known hydroquinone derivative which was a compound of the formula (I) in which R¹ was methyl (hereinafter referred to as HQ1) and BHT were respectively tested on their inhibition activities against hyperoxidation of lipid in the following manner.
First, 0.1 ml of the liver microsome suspension obtained in the above (1), 0.1 ml of NADPH (final concentration 2 mM), 0.1 ml of ADP (final concentration 10 mM) and 0.1 ml of a solution of one of the test compounds whose concentration was adjusted as shown in Table 2 with 10 % DMF were added to a tris-HCl buffer (167 mM KCl, 74 mM TRIS, pH 7.4), and the resultant mixture was warmed at 37°C for 5 minutes. Then, 0.1 ml of FeCl₃ (final concentration 0.1 mM) was added, and the mixture was warmed at 37°C for 20 minutes.
The resultant reaction mixture was cooled with ice. Then, 0.2 ml of 8.1 % SDS, 1.5 ml of an acetic acid buffer (prepared by adjusting 20 % acetic acid containing 0.27 mM HCl to pH 3.5 with 10N NaOH) and 1.5 ml of 0.8 % thiobarbituric acid were added to the cooled reaction mixture, and the resultant mixture was warmed over a boiling water bath for 20 minutes. After the warming, the reaction mixture was cooled with ice, and 4 ml of an n-BuOH/pyridine mixed solution [n-BuOH:pyridine = 15:1 (volume ratio)] was added to the cooled reaction mixture. The mixture was vigorously stirred.
The reaction mixture was centrifugally separated at 2,000 rpm for 10 minutes, and the resultant supernatant was measured for an absorbance at 532 nm to determine a thiobarbituric acid reaction amount. And, on the basis of a calibration curve of […] (MDA) amount prepared by using 1,1,3,3-tetramethoxypropane, a peroxidized lipid amount was determined as an amount of formed MDA.
In Control, the solution of the test compound in 10 % DMF was replaced with 0.1 ml of a 10 % DMF solution, and the above procedures were repeated to determine a peroxidized lipid amount. In Blank, each of 0.1 ml of NDAPH, 0.1 ml of ADP and 0.1 ml of FeCl₃ were replaced with 0.1 ml of water, the solution of the test compound in 10 % DMF was replaced with 0.1 ml of a 10 % DMF solution, and the above procedures were repeated to determine a peroxidized lipid amount.
The inhibition ratio of the lipid peroxidation reaction was calculated on the basis of the following equation. Inhibition ratio (%) =[1-(OD₁-OD₃)/(OD₂-OD₃)] x 100 [formula] OD₁: Absorbance when test compound is added. OD₂: Absorbance of Control OD₃: Absorbance of Blank

Salmonella TA 98 = test: Antimutagenic activity test on mutagenesis of heterocyclic amine to Salmonellae (preincubation Ames test with S9 mix); type: cell-based; conditions: mutagen IQ 0.005 µg; test compound 20.0 µg
Protocol: Compounds of the present invention were tested on their antimutagenic activity to heterocyclic amines of Glu-P-1·HCl, Trp-P-1 acetate and IQ by a preincubation method-applied Ames test according to the method of Diane et al (Diane F. Birt, et al., Carcinogenesis, Vol. 7, No. 6, 959-963, 1986).
That is, S9 mix (0.5 ml), 0.1 ml of a Salmonella TA 98 medium, a compound of the present invention dissolved in DMSO and 0.1 ml of one of the above mutagens were charged into a test tube, and cultured at 37°C for 20 minutes with shaking. Then, 2 ml of soft agar was added to, and mixed with, the contents in the test tube. The resultant mixture was spread over a minimal glucose agar medium, and cultured at 37°C for 48 hours, and the number of reverse mutation colonies. Two or three plates were prepared each dosage, and the test results were compared with the test result of a negative control group to which DMSO alone was added and the test result of a positive control group to which the corresponding mutagen alone was added. […]

[2] = test compound concentration 10⁻⁵M
[3] = test compound concentration 10⁻⁶M

Substance | antioxidant activity (result in words on Table 2) [1] | Inhibition ratio of lipid peroxidation (%) [1, 2] [%] | Inhibition ratio of lipid peroxidation (%) [1, 3] [%] | Mutagenesis inhibition ratio (Salmonella TA 98)
1-decylhydroquinone [Preparation Example 2] | excellent antioxidant activity over the known hydroquinone derivative HQ1 | 79.5 | 1.8 | 
1-octylhydroquinone [Preparation Example 1] | excellent antioxidant activity over the known hydroquinone derivative HQ1 | 99.7 | 9.8 | 
1-butyl-2,3,5-trimethylhydroquinone [Preparation Example 3] |  |  | 75.9 | 85
4-hexyl-2,3,5-trimethylhydroquinone [Preparation Example 8] |  | 98.3 | 40 | 
